From patent US9499550B2 (BRISTOL-MYERS SQUIBB COMPANY, priority 2012, dated 2016) come the findings set out here.

The test system of assay [1] is HCV genotype 1a (H77 strain) replicon in HUH-7 cells. Briefly: HCV replicon luciferase reporter assay, genotype 1a. The assay is classed as cell-based. To be noted: Hepatitis C virus, Huh-7, 72 h, HCV genotype 1a replicon luciferase assay, 3 days incubation, range class, read-out: LE_1a (EC50, range). The essentials:
(§1)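 Replicon inhibition for both genotypes was measured as Renilla luciferase signal (EnduRen, 7.5 μM final, 2 h) after 3-day, 37° C exposure of replicon-bearing HUH-7 cells in 4% FCS DMEM, 0.5% DMSO. The 1b construct carries S1179I; the 1a H77 construct carries P1496L and S2204I. Twenty-point, 3-fold dilutions were fitted four-parametrically for EC50, and CC50 was taken from multiplexed Cell Titer-Blue.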

The test system of assay [2] is HCV genotype 1b (Con1) replicon in HUH-7 cells. Briefly: HCV replicon luciferase reporter assay, genotype 1b. The assay is classed as cell-based. The conditions noted are these: Hepatitis C virus, Huh-7, 72 h, HCV genotype 1b replicon luciferase assay, 3 days incubation, range class, read-out: LE_1b (EC50, range). Put shortly: as §1
On the technique in general: Replicon systems follow genome replication, usually without infectious particles.

Read-outs that look alike come from different tables or passages of the source. Some results are limits rather than exact numbers.

As to `CC[C@@H]1C[C@H](C)CC/C=C\[C@@H]2C[C@@]2(C(=O)NS(=O)(=O)C2(C)CC2)NC(=O)[C@@H]2C[C@@H](Oc3nccc4c(OC)cccc34)CN2C(=O)[C@H]1NC(=O)OC(C)(C)C(F)(F)F` [Compound 3028, 1,1,1-trifluoro-2-methylpropan-2-yl((2R,6S,7R,9R,13aS,14aR,16aS,Z)-7-ethyl-2-((5-methoxyisoquinolin-1-yl)oxy)-9-methyl-14a-(((1-methylcyclopropyl)sulfonyl)carbamoyl)-5,16-dioxo-1,2,3,5,6,7,8,9,10,11,13a,14,14a,15,16,16a-hexadecahydrocyclopropa[e]pyrrolo[1,2-a][1,4]diazacyclopentadecin-6-yl)carbamate], the half-maximal effective concentration (EC50) in assay [1] and in assay [2] was under 5.46 nM throughout.
Consider `CC[C@@H]1C[C@@H](C)CC/C=C\[C@@H]2C[C@@]2(C(=O)NS(=O)(=O)C2CC2)NC(=O)[C@@H]2C[C@@H](Oc3nccc4c(OC)cccc34)CN2C(=O)[C@H]1NC(=O)NC(C)(C)C` [Compound 3029, (2R,6S,7R,9S,13aS,14aR,16aS,Z)-6-(3-(tert-butyl)ureido)-N-(cyclopropylsulfonyl)-7-ethyl-2-((5-methoxyisoquinolin-1-yl)oxy)-9-methyl-5,16-dioxo-1,2,3,5,6,7,8,9,10,11,13a,14,14a,15,16,16a-hexadecahydrocyclopropa[e]pyrrolo[1,2-a][1,4]diazacyclopentadecine-14a-carboxamide], for which the EC50 in assay [1] and in assay [2] was 4.82 to 103 nM in each case.
On to `CC[C@@H]1C[C@H](C)CC/C=C\[C@@H]2C[C@@]2(C(=O)NS(=O)(=O)C2CC2)NC(=O)[C@@H]2C[C@@H](Oc3nccc4c(OC)cccc34)CN2C(=O)[C@H]1NC(=O)NC(C)(C)C` [Compound 3030, (2R,6S,7R,9R,13aS,14aR,16aS,Z)-6-(3-(tert-butyl)ureido)-N-(cyclopropylsulfonyl)-7-ethyl-2-((5-methoxyisoquinolin-1-yl)oxy)-9-methyl-5,16-dioxo-1,2,3,5,6,7,8,9,10,11,13a,14,14a,15,16,16a-hexadecahydrocyclopropa[e]pyrrolo[1,2-a][1,4]diazacyclopentadecine-14a-carboxamide], for which the EC50 in assay [1] and in assay [2] was under 5.46 nM in each case.
For the molecule `CC[C@@H]1C[C@@H](C)CC/C=C\[C@@H]2C[C@@]2(C(=O)NS(=O)(=O)C2CC2)NC(=O)[C@@H]2C[C@@H](Oc3nccc4c(OC)cccc34)CN2C(=O)[C@H]1NC(=O)OC(C)(C)C(F)(F)F` [Compound 3031, 1,1,1-trifluoro-2-methylpropan-2-yl((2R,6S,7R,9S,13aS,14aR,16aS,Z)-14a-((cyclopropylsulfonyl)carbamoyl)-7-ethyl-2-((5-methoxyisoquinolin-1-yl)oxy)-9-methyl-5,16-dioxo-1,2,3,5,6,7,8,9,10,11,13a,14,14a,15,16,16a-hexadecahydrocyclopropa[e]pyrrolo[1,2-a][1,4]diazacyclopentadecin-6-yl)carbamate], the concentration for a half-maximal effect (EC50) in assay [1] and in assay [2] was 4.82 to 103 nM each time.
For `CC[C@@H]1C[C@H](C)CC/C=C\[C@@H]2C[C@@]2(C(=O)NS(=O)(=O)C2CC2)NC(=O)[C@@H]2C[C@@H](Oc3nccc4c(OC)cccc34)CN2C(=O)[C@H]1NC(=O)OC(C)(C)C(F)(F)F` [Compound 3032, 1,1,1-trifluoro-2-methylpropan-2-yl((2R,6S,7R,9R,13aS,14aR,16aS,Z)-14a-((cyclopropylsulfonyl)carbamoyl)-7-ethyl-2-((5-methoxyisoquinolin-1-yl)oxy)-9-methyl-5,16-dioxo-1,2,3,5,6,7,8,9,10,11,13a,14,14a,15,16,16a-hexadecahydrocyclopropa[e]pyrrolo[1,2-a][1,4]diazacyclopentadecin-6-yl)carbamate], the EC50 in assay [1] and in assay [2] was under 5.46 nM each time.
For `CC[C@@H]1C[C@@H](C)CC/C=C\[C@@H]2C[C@@]2(C(=O)NS(=O)(=O)C2(C)CC2)NC(=O)[C@@H]2C[C@@H](Oc3nccc4c(OC)cccc34)CN2C(=O)[C@H]1NC(=O)NC(C)(C)C` [Compound 3033, (2R,6S,7R,9S,13aS,14aR,16aS,Z)-6-(3-(tert-butyl)ureido)-7-ethyl-2-((5-methoxyisoquinolin-1-yl)oxy)-9-methyl-N-((1-methylcyclopropyl)sulfonyl)-5,16-dioxo-1,2,3,5,6,7,8,9,10,11,13a,14,14a,15,16,16a-hexadecahydrocyclopropa[e]pyrrolo[1,2-a][1,4]diazacyclopentadecine-14a-carboxamide], the EC50 in assay [1] and in assay [2] was 4.82 to 103 nM in each case.
Regarding `CC[C@@H]1C[C@H](C)CC/C=C\[C@@H]2C[C@@]2(C(=O)NS(=O)(=O)C2(C)CC2)NC(=O)[C@@H]2C[C@@H](Oc3nccc4c(OC)cccc34)CN2C(=O)[C@H]1NC(=O)NC(C)(C)C` [Compound 3034, (2R,6S,7R,9R,13aS,14aR,16aS,Z)-6-(3-(tert-butyl)ureido)-7-ethyl-2-((5-methoxyisoquinolin-1-yl)oxy)-9-methyl-N-((1-methylcyclopropyl)sulfonyl)-5,16-dioxo-1,2,3,5,6,7,8,9,10,11,13a,14,14a,15,16,16a-hexadecahydrocyclopropa[e]pyrrolo[1,2-a][1,4]diazacyclopentadecine-14a-carboxamide], the EC50 in assay [1] and in assay [2] was under 5.46 nM each time.
In the case of `COc1cccc2c(O[C@@H]3C[C@H]4C(=O)N[C@]5(C(=O)NS(=O)(=O)C6(C)CC6)C[C@H]5/C=C\CC[C@H](C)C[C@@H](C)[C@H](NC(=O)OC(C)(C)C)C(=O)N4C3)nccc12` [Compound 3035, tert-butyl ((2R,6S,7R,9S,13aS,14aR,16aS,Z)-2-((5-methoxyisoquinolin-1-yl)oxy)-7,9-dimethyl-14a-(((1-methylcyclopropyl)sulfonyl)carbamoyl)-5,16-dioxo-1,2,3,5,6,7,8,9,10,11,13a,14,14a,15,16,16a-hexadecahydrocyclopropa[e]pyrrolo[1,2-a][1,4]diazacyclopentadecin-6-yl)carbamate], the EC50 was 4.82 to 103 nM in assay [1] and under 5.46 nM in assay [2].
As for `COc1cccc2c(O[C@@H]3C[C@H]4C(=O)N[C@]5(C(=O)NS(=O)(=O)C6(C)CC6)C[C@H]5/C=C\CC[C@@H](C)C[C@@H](C)[C@H](NC(=O)OC(C)(C)C)C(=O)N4C3)nccc12` [Compound 3036, tert-butyl ((2R,6S,7R,9R,13aS,14aR,16aS,Z)-2-((5-methoxyisoquinolin-1-yl)oxy)-7,9-dimethyl-14a-(((1-methylcyclopropyl)sulfonyl)carbamoyl)-5,16-dioxo-1,2,3,5,6,7,8,9,10,11,13a,14,14a,15,16,16a-hexadecahydrocyclopropa[e]pyrrolo[1,2-a][1,4]diazacyclopentadecin-6-yl)carbamate], the EC50 in assay [1] and in assay [2] was under 5.46 nM throughout.
On to `COc1cccc2c(O[C@@H]3C[C@H]4C(=O)N[C@]5(C(=O)NS(=O)(=O)C6(C)CC6)C[C@H]5/C=C\CC[C@H](C)C[C@@H](C)[C@H](NC(=O)OC(C)(C)C(F)(F)F)C(=O)N4C3)nccc12` [Compound 3037, 1,1,1-trifluoro-2-methylpropan-2-yl((2R,6S,7R,9S,13aS,14aR,16aS,Z)-2-((5-methoxyisoquinolin-1-yl)oxy)-7,9-dimethyl-14a-(((1-methylcyclopropyl)sulfonyl)carbamoyl)-5,16-dioxo-1,2,3,5,6,7,8,9,10,11,13a,14,14a,15,16,16a-hexadecahydrocyclopropa[e]pyrrolo[1,2-a][1,4]diazacyclopentadecin-6-yl)carbamate], for which the EC50 was 4.82 to 103 nM in assay [1] and under 5.46 nM in assay [2].
As for `COc1cccc2c(O[C@@H]3C[C@H]4C(=O)N[C@]5(C(=O)NS(=O)(=O)C6(CF)CC6)C[C@H]5/C=C\CC[C@@H](C)C[C@@H](C)[C@H](NC(=O)OC(C)(C)C)C(=O)N4C3)nccc12` [Compound 3039, tert-butyl ((2R,6S,7R,9R,13aS,14aR,16aS,Z)-14a-(((1-(fluoromethyl)cyclopropyl)sulfonyl)carbamoyl)-2-((5-methoxyisoquinolin-1-yl)oxy)-7,9-dimethyl-5,16-dioxo-1,2,3,5,6,7,8,9,10,11,13a,14,14a,15,16,16a-hexadecahydrocyclopropa[e]pyrrolo[1,2-a][1,4]diazacyclopentadecin-6-yl)carbamate], the EC50 in assay [1] and in assay [2] was under 5.46 nM each time.
As to `COc1cccc2c(O[C@@H]3C[C@H]4C(=O)N[C@]5(C(=O)NS(=O)(=O)C6(CF)CC6)C[C@H]5/C=C\CC[C@@H](C)C[C@@H](C)[C@H](NC(=O)OC(C)(C)C(F)(F)F)C(=O)N4C3)nccc12` [Compound 3040], the EC50 in assay [1] (GETYPE1A) and in assay [2] (GETYPE1B) was under 5.46 nM each time.
Turning to `COc1ccc2c(O[C@@H]3C[C@H]4C(=O)N[C@]5(C(=O)NS(=O)(=O)C6CC6)C[C@H]5/C=C\CC[C@H](C)C[C@@H](C)[C@H](NC(=O)OC(C)(C)C)C(=O)N4C3)nc(-c3ccc(F)cc3)cc2c1` [Compound 3041, tert-butyl ((2R,6S,7R,9S,13aS,14aR,16aS,Z)-14a-((cyclopropylsulfonyl)carbamoyl)-2-((3-(4-fluorophenyl)-6-methoxyisoquinolin-1-yl)oxy)-7,9-dimethyl-5,16-dioxo-1,2,3,5,6,7,8,9,10,11,13a,14,14a,15,16,16a-hexadecahydrocyclopropa[e]pyrrolo[1,2-a][1,4]diazacyclopentadecin-6-yl)carbamate], the half-maximal effective concentration (EC50) in assay [1] and in assay [2] was under 5.46 nM throughout.

As usually defined, the EC50 is the concentration needed to bring the measured effect to its halfway point.
